In patent US10308643B2, “Heterocyclic compound” (Takeda Pharmaceutical Company Limited, priority 2015, dated 2019) one finds inhibition data, which are given here for 9 compounds.

Common to all, as to type: biochemical
The target of one assay is T1, HDAC6 enzyme (Homo sapiens, UniProt Q9UBN7).
T1 construct: transducing full length HDAC1 and HDAC6 genes into Sf-9 insect cells; GST; purchased SignalChem; host or cells: Sf-9 insect cells
T1 sequence (Q9UBN7 1-1215): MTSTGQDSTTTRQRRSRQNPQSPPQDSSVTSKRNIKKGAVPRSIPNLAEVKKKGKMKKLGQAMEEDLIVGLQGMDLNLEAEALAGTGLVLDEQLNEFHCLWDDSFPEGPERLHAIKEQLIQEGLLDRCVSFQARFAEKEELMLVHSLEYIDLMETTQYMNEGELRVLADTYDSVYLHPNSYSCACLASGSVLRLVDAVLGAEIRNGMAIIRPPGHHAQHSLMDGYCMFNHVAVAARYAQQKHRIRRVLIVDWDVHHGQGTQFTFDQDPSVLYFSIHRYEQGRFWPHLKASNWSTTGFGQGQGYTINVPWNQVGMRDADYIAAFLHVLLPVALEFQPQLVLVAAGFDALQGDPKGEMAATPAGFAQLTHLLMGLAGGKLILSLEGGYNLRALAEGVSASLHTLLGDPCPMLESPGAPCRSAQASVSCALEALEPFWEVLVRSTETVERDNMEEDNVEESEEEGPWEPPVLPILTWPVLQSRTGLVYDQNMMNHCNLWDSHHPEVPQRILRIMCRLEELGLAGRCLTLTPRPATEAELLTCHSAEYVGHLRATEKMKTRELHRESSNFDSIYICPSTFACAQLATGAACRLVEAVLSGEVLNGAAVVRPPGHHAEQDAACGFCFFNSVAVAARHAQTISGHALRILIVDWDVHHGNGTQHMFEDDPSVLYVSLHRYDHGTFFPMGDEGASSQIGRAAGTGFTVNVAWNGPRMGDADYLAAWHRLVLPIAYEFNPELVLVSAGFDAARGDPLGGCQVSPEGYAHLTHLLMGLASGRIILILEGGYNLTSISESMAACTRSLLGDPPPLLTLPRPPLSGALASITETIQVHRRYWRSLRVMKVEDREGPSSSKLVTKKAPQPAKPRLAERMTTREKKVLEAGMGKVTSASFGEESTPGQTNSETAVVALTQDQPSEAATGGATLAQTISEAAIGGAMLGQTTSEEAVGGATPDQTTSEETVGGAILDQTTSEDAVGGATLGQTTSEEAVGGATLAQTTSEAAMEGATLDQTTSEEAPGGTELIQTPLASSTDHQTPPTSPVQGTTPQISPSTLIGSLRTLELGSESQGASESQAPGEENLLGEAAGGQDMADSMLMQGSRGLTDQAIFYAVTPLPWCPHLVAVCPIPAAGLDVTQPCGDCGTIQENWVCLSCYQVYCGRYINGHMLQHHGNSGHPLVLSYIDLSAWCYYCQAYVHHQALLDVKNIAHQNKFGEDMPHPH
In words: HDAC1/6 Enzyme Inhibitory Assay (HDAC-Glo I/II Assay kit), HDAC6. The settings on record: 1 μM test compound; wells without enzyme = 100% inhibition; read-out: HDAC6 inhibitory rate (%) (1 μM). In a few lines:
(§1)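 Luminescent HDAC-Glo I/II read-out was taken 20 min after adding substrate-developer, at room temperature. Before this, compound and enzyme were held together for 60 min in 24 mM Tris-HCl pH 7.5 with 0.6 mM glutathione and 0.01% Tween-20. The enzyme was full-length HDAC1 or HDAC6 from Sf-9 cells, GST-purified. Wells without enzyme defined 100% inhibition.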

In a further assay the target is T2, HDAC1 enzyme (Homo sapiens, UniProt Q13547).
T2 construct: transducing full length HDAC1 and HDAC6 genes into Sf-9 insect cells; GST; purchased SignalChem; host or cells: Sf-9 insect cells
In words: HDAC1/6 Enzyme Inhibitory Assay (HDAC-Glo I/II Assay kit), HDAC1. The conditions noted are these: 1 μM test compound; wells without enzyme = 100% inhibition; read-out: HDAC1 inhibitory rate (%) (1 μM). In a few lines: as §1

A further assay addresses T3, HDAC9 enzyme (Homo sapiens, UniProt Q9UKV0).
T3 construct: transducing full length HDAC9 gene into Sf-9 insect cells; made in house; host or cells: Sf-9 insect cells
In words: HDAC9 Enzyme Inhibitory Assay (HDAC-Glo class IIa). The conditions noted are these: 1 μM test compound; wells without enzyme = 100% inhibition; read-out: HDAC9 inhibitory rate (%) (1 μM). In a few lines:
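Luminescent HDAC-Glo class IIa readout after a 20 min room-temperature reaction; relative inhibition referenced to enzyme-free wells as 100%. Test compound first preincubated 60 min with Sf-9-expressed, Ni-NTA-purified full-length HDAC9 in pH 7.5 Tris buffer containing 135 mM NaCl, 0.6 mM glutathione and 0.01% Tween-20.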

Structures are written as SMILES.

T3 sequence (Q9UKV0 whole entry, species assumed): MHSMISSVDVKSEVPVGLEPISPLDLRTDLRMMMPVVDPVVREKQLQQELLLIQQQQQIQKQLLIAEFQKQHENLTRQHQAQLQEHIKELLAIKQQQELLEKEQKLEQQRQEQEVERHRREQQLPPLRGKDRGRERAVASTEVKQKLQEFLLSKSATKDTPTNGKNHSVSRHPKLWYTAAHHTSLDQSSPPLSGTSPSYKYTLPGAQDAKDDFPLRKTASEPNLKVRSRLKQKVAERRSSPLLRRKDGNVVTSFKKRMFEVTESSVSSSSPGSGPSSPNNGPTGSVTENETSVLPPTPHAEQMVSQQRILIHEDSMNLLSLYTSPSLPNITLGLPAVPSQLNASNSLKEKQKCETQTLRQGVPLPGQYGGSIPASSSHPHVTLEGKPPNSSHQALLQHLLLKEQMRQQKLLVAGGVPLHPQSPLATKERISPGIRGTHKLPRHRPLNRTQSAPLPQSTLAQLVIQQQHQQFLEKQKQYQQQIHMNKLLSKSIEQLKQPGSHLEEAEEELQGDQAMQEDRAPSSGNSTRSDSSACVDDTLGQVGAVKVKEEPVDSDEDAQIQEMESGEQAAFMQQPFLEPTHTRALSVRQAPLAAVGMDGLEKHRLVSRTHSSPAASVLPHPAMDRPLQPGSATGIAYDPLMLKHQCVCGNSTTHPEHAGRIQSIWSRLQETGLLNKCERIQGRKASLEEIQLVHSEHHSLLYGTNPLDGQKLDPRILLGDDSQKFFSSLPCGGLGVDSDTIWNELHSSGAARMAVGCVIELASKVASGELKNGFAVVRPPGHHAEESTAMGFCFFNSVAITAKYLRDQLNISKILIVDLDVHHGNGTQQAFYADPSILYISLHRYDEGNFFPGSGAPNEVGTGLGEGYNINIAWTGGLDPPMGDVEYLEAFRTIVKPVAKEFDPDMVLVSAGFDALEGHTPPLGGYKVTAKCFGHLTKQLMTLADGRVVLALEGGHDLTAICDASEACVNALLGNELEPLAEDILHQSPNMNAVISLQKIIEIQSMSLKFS
T2 sequence (Q13547 whole entry): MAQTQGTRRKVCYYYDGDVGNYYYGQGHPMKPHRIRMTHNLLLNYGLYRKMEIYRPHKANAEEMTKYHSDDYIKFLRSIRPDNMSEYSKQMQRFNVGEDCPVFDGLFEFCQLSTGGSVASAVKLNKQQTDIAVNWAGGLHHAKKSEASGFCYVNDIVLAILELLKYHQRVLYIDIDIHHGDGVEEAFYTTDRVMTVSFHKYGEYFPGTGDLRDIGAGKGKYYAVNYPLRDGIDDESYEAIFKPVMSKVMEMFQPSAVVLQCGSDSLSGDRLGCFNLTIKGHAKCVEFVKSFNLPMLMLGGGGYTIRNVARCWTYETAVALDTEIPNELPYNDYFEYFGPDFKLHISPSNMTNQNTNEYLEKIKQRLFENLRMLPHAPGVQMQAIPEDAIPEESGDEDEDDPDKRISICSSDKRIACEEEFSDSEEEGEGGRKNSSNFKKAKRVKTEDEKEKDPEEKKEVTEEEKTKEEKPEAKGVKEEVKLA

On to `O=C1c2cc(-c3noc(C(F)(F)F)n3)ccc2CN1[C@H]1CCNC[C@H]1c1ccccc1` [Example 16, 2-((3R,4S)-3-phenylpiperidin-4-yl)-6-(5-(trifluoromethyl)-1,2,4-oxadiazol-3-yl)isoindolin-1-one], for which the inhibition at 1 µM was 98% on HDAC6 enzyme, 49% at HDAC1 enzyme and 87% on HDAC9 enzyme.

Consider `O=C1c2cc(-c3noc(C(F)(F)F)n3)ccc2CN1[C@@H]1CCCC[C@H]1NC(=O)C1(c2ccccc2)COC1` [Example 134, N-((1R,2R)-2-(1-oxo-6-(5-(trifluoromethyl)-1,2,4-oxadiazol-3-yl)-1,3-dihydro-2H-isoindol-2-yl)cyclohexyl)-3-phenyloxetane-3-carboxamide], for which the inhibition at 1 µM was 99% on HDAC6 enzyme, -5% on HDAC1 enzyme and 36% at HDAC9 enzyme.

Take `O=C1c2ccc(-c3noc(C(F)(F)F)n3)cc2CN1[C@@H]1CCNC[C@H]1c1ccccc1` (relative stereo) [Example 136, trans-2-(3-phenylpiperidin-4-yl)-5-(5-(trifluoromethyl)-1,2,4-oxadiazol-3-yl)isoindolin-1-one]: the figures for the inhibition at 1 µM at HDAC6 enzyme, at HDAC1 enzyme and on HDAC9 enzyme were 94%, 39% and 82%, respectively.

For the compound `CC(C)(O)C(=O)N[C@H]1CCCC[C@@H]1N1Cc2ccc(-c3noc(C(F)(F)F)n3)cc2C1=O` [Example 219, 2-hydroxy-2-methyl-N-((1S,2S)-2-(1-oxo-6-(5-(trifluoromethyl)-1,2,4-oxadiazol-3-yl)-1,3-dihydro-2H-isoindol-2-yl)cyclohexyl)propanamide], the inhibition at 1 µM on HDAC6 enzyme amounted to 40%; at HDAC1 enzyme, 5%; at HDAC9 enzyme, 50%.

As for `CC1(C(=O)N[C@@H]2CCOC[C@H]2N2Cc3ccc(-c4noc(C(F)(F)F)n4)cc3C2=O)COC1` [Example 192, 3-methyl-N-((3S,4R)-3-(1-oxo-6-(5-(trifluoromethyl)-1,2,4-oxadiazol-3-yl)-1,3-dihydro-2H-isoindol-2-yl)tetrahydro-2H-pyran-4-yl)oxetane-3-carboxamide], the inhibition at 1 µM on HDAC6 enzyme is 99%; on HDAC1 enzyme it was 6%; at HDAC9 enzyme, 40%.

As to `CN1CCCCC1C(=O)N[C@@H]1CCCC[C@H]1N1Cc2ccc(-c3noc(C(F)(F)F)n3)cc2C1=O` (stereo partly drawn) [Example 124, 1-methyl-N-((1R,2R)-2-(1-oxo-6-(5-(trifluoromethyl)-1,2,4-oxadiazol-3-yl)-1,3-dihydro-2H-isoindol-2-yl)cyclohexyl)piperidine-2-carboxamide], the inhibition at 1 µM on HDAC6 enzyme is 96%; at HDAC1 enzyme it was 3%; at HDAC9 enzyme, 32%.

For `O=C(CCC(F)F)N[C@@H]1CCCC[C@H]1N1Cc2ccc(-c3noc(C(F)(F)F)n3)cc2C1=O` [Example 126, 4,4-difluoro-N-((1R,2R)-2-(1-oxo-6-(5-(trifluoromethyl)-1,2,4-oxadiazol-3-yl)-1,3-dihydro-2H-isoindol-2-yl)cyclohexyl)butanamide], the figures for the inhibition at 1 µM on HDAC6 enzyme, at HDAC1 enzyme and on HDAC9 enzyme were 100%, 10% and 59%, respectively.

In the case of `O=C(Cc1ccc(F)cc1)N1CCC(N2Cc3ncc(-c4noc(C(F)(F)F)n4)cc3C2=O)C1` (stereo not drawn) [Example 74, 6-(1-((4-fluorophenyl)acetyl)pyrrolidin-3-yl)-3-(5-(trifluoromethyl)-1,2,4-oxadiazol-3-yl)-6,7-dihydro-5H-pyrrolo[3,4-b]pyridin-5-one], the inhibition at 1 µM turned out to be 86% on HDAC6 enzyme, 33% at HDAC1 enzyme and 90% at HDAC9 enzyme.

Turning to `CC(=O)N1CCCC(N2Cc3ncc(-c4noc(C(F)(F)F)n4)cc3C2=O)C1` (stereo not drawn) [Example 39, 6-(1-acetylpiperidin-3-yl)-3-(5-(trifluoromethyl)-1,2,4-oxadiazol-3-yl)-6,7-dihydro-5H-pyrrolo[3,4-b]pyridin-5-one], the inhibition at 1 µM at HDAC6 enzyme worked out at 91%; at HDAC1 enzyme, 23%; on HDAC9 enzyme, 86%.
